Structures can show the parent of a compound that is named as a salt.
Columns and labels:
Assay type in all cases: cell-based
[1] = system: NCI-H1975 cells (T790M and L858R EGFR mutations); test: Cell growth inhibition (Cell Titer-Glo), NCI-H1975; settings: Homo sapiens, 72 hours drug treatment, 0.03 nM to 100 nM
Protocol: (§1) Experiment of Cell Growth Inhibition
(§2) The LoVo cell line is a wild-type EGFR human colon adenocarcinoma cell, and is grown in F-12K medium (GIBCO) containing 10% FBS. NCI-H2073 cell line is a wild-type EGFR human non-small cell lung cancer cell and grown in ACL-4 medium containing 10% FBS. The growth rate of NCI-H1975, LoVo and NCI-H2073 cells was detected by Cell Titer-Glo luminescence activity assay (Promega #G7572).
(§3) Briefly, trypsin was used for digesting cells in the logarithmic growth phase. 96-well plates were seeded with 50,000 Lovo or NCI-H2073 cells, 2500-3000 NCI-H1975 cells per well and provided with blank control wells containing only nutrient solution without inoculated cell, and the plates were incubated in a humidified incubator with 5% CO2 at 37° C. […] The concentration of test drug in NCI-H1975 cells was from 0.03 nM to 100 nM, and that in LoVo and NCI-H2073 cells was from 3 nM to 10 μM. The cell culture medium containing the different compounds was then added to a 96-well cell plate in which one cell control well comprising cell culture medium only containing DMSO was provided. After a drug treatment for 72 hours, the cell plates were removed from the incubator and allowed to stand at room temperature for 30 minutes. Next, Cell Titer-Glo reagent was added to the wells and the 96-well cell plate was shaken at room temperature for 10 minutes to induce cell lysis. The 96-well cell plate was placed on the bench for 2 minutes to stabilize the luminescence signal. Finally, the 96-well cell plate was placed in an EnVision Multi-labeled Microplate Reader (PerkinElmer), and the signal was read with an integral time of 0.5 seconds.
(§4) Formula: Percentage of cell growth inhibition %=(maximum signal−compound signal)/(maximum signal−minimum signal)*100%
(§5) The maximal signal was obtained from the cell control well which were treated with the DMSO solution having no any compound;
(§6) The compound signal was obtained from the drug-treated cell wells to which the compound was added;
(§7) The minimum signal was obtained from a blank control well to which no cells and only nutrient solution was added.

[2] = system: LoVo cells (wild-type EGFR human colon adenocarcinoma); test: Cell growth inhibition (Cell Titer-Glo), LoVo; settings: 72 hours drug treatment, 3 nM to 10 μM
Protocol: as §1, §2, §3, §4, §5, §6, §7

[3] = system: NCI-H2073 cells (wild-type EGFR human non-small cell lung cancer); test: Cell growth inhibition (Cell Titer-Glo), NCI-H2073; settings: 72 hours drug treatment, 3 nM to 10 μM
Protocol: as §1
as §2, with “The compounds that were preferentially targeted for EGFR targeting certain mutations and relatively weak in wild-type EGFR were identified by determining the growth of cells. The NCI-H1975 cell line is a human non-small cell lung cancer cell containing T790M and L858R EGFR mutations, and the cell is grown in RPMI-1640 medium (GIBCO) containing 10% fetal bovine serum (FBS). The LoVo” for “The LoVo”
Briefly, trypsin was used for digesting cells in the logarithmic growth phase. 96-well plates were seeded with 50,000 Lovo or NCI-H2073 cells, 2500-3000 NCI-H1975 cells per well and provided with blank control wells containing only nutrient solution without inoculated cell, and the plates were incubated in a humidified incubator with 5% CO2 at 37° C. After 24 hours, the DMSO solution of the different compounds was diluted with a cell culture medium at 3.16 times per time to eight different concentrations from high to low levels. The concentration of test drug in NCI-H1975 cells was from 0.03 nM to 100 nM, and that in LoVo and NCI-H2073 cells was from 3 nM to 10 μM. The cell culture medium containing the different compounds was then added to a 96-well cell plate in which one cell control well comprising cell culture medium only containing DMSO was provided. After a drug treatment for 72 hours, the cell plates were removed from the incubator and allowed to stand at room temperature for 30 minutes. Next, Cell Titer-Glo reagent was added to the wells and the 96-well cell plate was shaken at room temperature for 10 minutes to induce cell lysis. The 96-well cell plate was placed on the bench for 2 minutes to stabilize the luminescence signal. Finally, the 96-well cell plate was placed in an EnVision Multi-labeled Microplate Reader (PerkinElmer), and the signal was read with an integral time of 0.5 seconds.
as §4, §5, §6, §7

Structure (SMILES) | IC50 [1] | IC50 [2] | IC50 [3]
C=CC(=O)Nc1cc(Nc2nccc(-n3ccc4ccccc43)n2)c(OC)cc1N(C)CCN(C)C [3. (MsOH)2] | 6.2 nM | 3090 nM | 295 nM
C=CC(=O)Nc1cc(Nc2nccc(N3CC4(CC4)c4ccccc43)n2)c(OC)cc1N(C)CCN(C)C [38. (HCl)n] | 8.2 nM | 2990 nM | 476 nM
C=CC(=O)Nc1cc(Nc2nccc(-c3nc(C)c4ccccn34)n2)c(OC)cc1N(C)CCN(C)C [52. (HCl)n] | 5.2 nM | 6100 nM | 220 nM
C=CC(=O)Nc1cc(Nc2nccc(N3CCOc4ccccc43)n2)c(OC)cc1N(C)CCN(C)C [36. (MsOH)3] | 15 nM | 4330 nM | 410 nM
[2H]C([2H])([2H])N(CCN(C)C)c1cc(OC)c(Nc2nccc(-n3c(=O)n(C)c4ccccc43)n2)cc1NC(=O)C=C [59. (HCl)n] | 1.3 nM | 4180 nM | 120 nM
C=CC(=O)Nc1cc(Nc2nccc(N3CC(C)(C)c4ccccc43)n2)c(OC)cc1N(C)CCN(C)C [37. (MsOH)3] | 8.1 nM | 4660 nM | 260 nM
C=CC(=O)Nc1cc(Nc2nccc(-c3cn(C)c4ccccc34)n2)c(OC)cc1N1CC(N2CCC2)C1 [Example 22] | 20.5 nM | > 10000 nM | > 10000 nM
[2H]C([2H])([2H])N(CCN(C)c1cc(OC)c(Nc2nccc(-n3cc(C)c4ccccc43)n2)cc1NC(=O)C=C)C([2H])([2H])[2H] [63. (HCl)n] | 4.8 nM |  | 410 nM
[2H]C([2H])([2H])N(CCN(C)c1cc(OC)c(Nc2nccc(-n3c(=O)[nH]c4ccccc43)n2)cc1NC(=O)C=C)C([2H])([2H])[2H] [61. (HCl)n] | 1.5 nM |  | 29 nM
[2H]C([2H])([2H])N(CCN(C)c1cc(OC)c(Nc2nccc(-c3cn(S(C)(=O)=O)c4ccccc34)n2)cc1NC(=O)C=C)C([2H])([2H])[2H] [70. (MsOH)2] | 0.5 nM |  | 46 nM
[2H]C([2H])([2H])N(CCN(C)C)c1cc(OC)c(Nc2nccc(-n3c(=O)n(CC)c4ccccc43)n2)cc1NC(=O)C=C [68. (MsOH)2] | 0.4 nM |  | 43 nM
[2H]C([2H])([2H])N(CCN(C)c1cc(OC)c(Nc2nccc(-n3c(=O)n(CC)c4ccccc43)n2)cc1NC(=O)C=C)C([2H])([2H])[2H] [69. (MsOH)3] | 0.8 nM |  | 63 nM
C=CC(=O)Nc1cc(Nc2nccc(-n3c(=O)n(CC(F)(F)F)c4ccccc43)n2)c(OC)cc1N(C)CCN(C)C [108. (MsOH)2] | 5.9 nM |  | 253 nM
C=CC(=O)Nc1cc(Nc2nccc(-n3nnc4ccccc43)n2)c(OC)cc1N(C)CCN(C)C [2. (MsOH)3] | 6.1 nM | 2300 nM | 474 nM
[2H]C([2H])([2H])N(CCN(C)c1cc(OC)c(Nc2nccc(-n3nnc4ccccc43)n2)cc1NC(=O)C=C)C([2H])([2H])[2H] [64. (HCl)n] | 6 nM |  | 310 nM
[2H]C([2H])([2H])N(CCN(C)c1cc(OC)c(Nc2nccc(-n3c(=O)n(C)c4ccccc43)n2)cc1NC(=O)C=C)C([2H])([2H])[2H] [58. (HCl)n] | 1.6 nM |  | 116 nM
[2H]C([2H])([2H])N(CCN(C)c1cc(OC)c(Nc2nccc(-c3cn(CC)c4ccccc34)n2)cc1NC(=O)C=C)C([2H])([2H])[2H] [72. (MsOH)3] | 2.7 nM |  | 282 nM
[2H]C([2H])([2H])N(CCN(C)C)c1cc(OC)c(Nc2nccc(-n3c(=O)n(C([2H])([2H])[2H])c4ccccc43)n2)cc1NC(=O)C=C [76. (MsOH)2] | 1 nM |  | 56 nM
[2H]C([2H])([2H])N(CCN(C)C)c1cc(OC)c(Nc2nccc(-n3nnc4ccccc43)n2)cc1NC(=O)C=C [74. (MsOH)3] | 14.4 nM |  | 463 nM
C=CC(=O)Nc1cc(Nc2nccc(N3c4ccccc4N(CC)S3(=O)=O)n2)c(OC)cc1N(C)CCN(C)C [111. (MsOH)2] | 2.7 nM |  | 49 nM
[2H]C([2H])([2H])N(CCN(C)c1cc(OC)c(Nc2nccc(N3CCc4ccccc43)n2)cc1NC(=O)C=C)C([2H])([2H])[2H] [62. (HCl)n] | 3.2 nM |  | 270 nM

Next, values leading:

IC50 [1] | IC50 [2] | IC50 [3] | Structure (SMILES)
7.1 nM | 7100 nM | 490 nM | C=CC(=O)Nc1cc(Nc2nccc(-c3cccc4c3cnn4C)n2)c(OC)cc1N(C)CCN(C)C [42. (HCl)n]
9.2 nM | > 10000 nM | 290 nM | C=CC(=O)Nc1cc(Nc2nccc(-n3[nH]c(=O)c4ccccc43)n2)c(OC)cc1N(C)CCN(C)C [50. (HCl)n]
5.4 nM | 2260 nM | 230 nM | C=CC(=O)Nc1cc(Nc2nccc(-c3nn(C)c4ccccc34)n2)c(OC)cc1N(C)CCN(C)C [1. (HCl)n]
13 nM | 2520 nM | 2520 nM | C=CC(=O)Nc1cc(Nc2nccc(-c3cn(C)c4ccccc34)n2)c(OC)cc1OCCN(C)C [29. (MsOH)2]
1.3 nM | 6090 nM | 183 nM | C=CC(=O)Nc1cc(Nc2nccc(-n3c(=O)n(C)c4ccccc43)n2)c(OC)cc1N(C)CCN(C)C [40. (MsOH)3]
8.6 nM | 2570 nM | 500 nM | C=CC(=O)Nc1cc(Nc2nccc(-n3cc(C)c4ccccc43)n2)c(OC)cc1N(C)CCN(C)C [4. (MsOH)3]
14 nM | 870 nM | 280 nM | C=CC(=O)Nc1cc(Nc2cc(-c3cn(C)c4ccccc34)ncn2)c(OC)cc1N(C)CCN(C)C [44. (HCl)n]
9.9 nM | 2170 nM | 760 nM | C=CC(=O)Nc1cc(Nc2nccc(-c3cn(C)c4ccccc34)n2)c(OC)cc1N(C)CCN(C)CC [7. (MsOH)3]
5.5 nM | 2340 nM | 435 nM | C=CC(=O)Nc1cc(Nc2nccc(-c3cn(CC)c4ccccc34)n2)c(OC)cc1N(C)CCN(C)C [48. (HCl)n]
1.7 nM |  | 179 nM | [2H]C([2H])([2H])N(CCN(C)C)c1cc(OC)c(Nc2nccc(-c3cn(CC)c4ccccc34)n2)cc1NC(=O)C=C [73. (MsOH)2]
100 nM |  | 5420 nM | C=CC(=O)Nc1cc(Nc2nccc(-n3cc(S(C)(=O)=O)c4ccccc43)n2)c(OC)cc1N(C)CCN(C)C [112. (MsOH)2]
15.7 nM |  | 543 nM | C=CC(=O)Nc1cc(Nc2nccc(-c3cn(CC(F)F)c4ccccc34)n2)c(OC)cc1N(C)CCN(C)C [105. (MsOH)2]
113 nM | 1940 nM | 870 nM | C=CC(=O)Nc1cc(Nc2nccc(-c3cn(C)c4ccccc34)n2)c(OC)cc1N(C)CCN(CC)CC [8. MsOH]
2.6 nM | 1280 nM | 325 nM | C=CC(=O)Nc1cc(Nc2nccc(-c3nn(CC)c4ccccc34)n2)c(OC)cc1N(C)CCN(C)C [51. (HCl)n]
0.8 nM | 3390 nM | 18 nM | C=CC(=O)Nc1cc(Nc2nccc(-n3c(=O)[nH]c4ccccc43)n2)c(OC)cc1N(C)CCN(C)C [39. (MsOH)3]
81.7 nM |  | 4100 nM | C=CC(=O)Nc1cc(Nc2nccc(-c3cncc4ccccc34)n2)c(OC)cc1N(C)CCN(C)C [Example 67]
